Results from patent publication US12318487B2, “Solid tablet dosage form of ridinilazole” (c/o Summit (Oxford) Limited, priority 2021, dated 2025).

Assays:
[1] = Crystal agglomerate particle sizing by laser diffraction (Malvern dry dispersion); type: physicochemical
Procedure: This was carried out by laser diffraction using a Malvern 2000 dry disperser. The settings used for sizing are set out below: [table] Sample preparation—Triplicate Invert sample jar or vial 10 times. Weigh approximately 2 g of sample and transfer to the sample tray. Evenly disperse sample in sample tray.

[2] = XRPD limit test for crystal form conversion (Forms D and N) in packaged tablet; type: physicochemical; conditions: proposed storage condition, proposed commercial packaging
Excerpt: The stability of the ridinilazole crystal form within the tablet as packaged in the intended commercial packaging configurations. Assessments have been made using a validated discriminatory X-ray powder diffraction (XRPD) method developed as a limit test for detecting Forms D and N within the drug product.

[3] = system: Clostridioides difficile infection (CDI); conditions: Phase 2 trial, CDI recurrence; cited from earlier work
[4] = BCS classification and solubility of drug substance; type: physicochemical; conditions: across physiologically relevant pH
Excerpt: Ridinilazole is a BCS class IV, orally administered and locally acting (lower intestines) GI antibiotic with minimal systemic exposure and very low solubility across physiologically relevant pH. BCS class IV drugs are known to present particular formulation challenges, especially in the case of oral formulations (see e.g. Ghadi and Dand (2017) BCS class IV drugs: Highly notorious candidates for formulation development Journal of Controlled Release, 248: 71-95).

[5] = Table 5, input drug substance at limits of specification, listed as 1
[6] = Table 6, micronized ridinilazole tetrahydrate, additional studies, listed as 1
[7] = Table 5, input drug substance at limits of specification, listed as 2
[8] = Table 6, micronized ridinilazole tetrahydrate, additional studies, listed as 2
[9] = Table 5, input drug substance at limits of specification, listed as 3
[10] = Table 6, micronized ridinilazole tetrahydrate, additional studies, listed as 3
[11] = Table 5, input drug substance at limits of specification, listed as 4
[12] = Table 6, micronized ridinilazole tetrahydrate, additional studies, listed as 4
[13] = Table 6, micronized ridinilazole tetrahydrate, additional studies, listed as 5

For `O.O.O.O.c1cc(-c2nc3ccc(-c4ccc5nc(-c6ccncc6)[nH]c5c4)cc3[nH]2)ccn1` [Batch 1, ridinilazole tetrahydrate], the D10 [1, 5] was 2 μm, the D50 [1, 5] was 7 μm and the D90 [1, 5] was 20 μm. The D10 [1, 6] was 1.5 μm, the D50 [1, 6] was 6 μm and the D90 [1, 6] was 14 μm.
In the case of `O.O.O.O.c1cc(-c2nc3ccc(-c4ccc5nc(-c6ccncc6)[nH]c5c4)cc3[nH]2)ccn1` [Batch 2, ridinilazole tetrahydrate], the D10 [1, 7] is reported as 1 μm, the D50 [1, 7] is reported as 5 μm and the D90 [1, 7] is reported as 11 μm. It also gave a D10 [1, 8] of 1.1 μm, a D50 [1, 8] of 5 μm and a D90 [1, 8] of 11 μm.
With `O.O.O.O.c1cc(-c2nc3ccc(-c4ccc5nc(-c6ccncc6)[nH]c5c4)cc3[nH]2)ccn1` [Batch 3, ridinilazole tetrahydrate] the D10 [1, 9] was 1 μm, the D50 [1, 9] was 5 μm and the D90 [1, 9] was 11 μm. For the same compound, the D10 [1, 10] was 1.7 μm, the D50 [1, 10] was 7 μm and the D90 [1, 10] was 14 μm.
`O.O.O.O.c1cc(-c2nc3ccc(-c4ccc5nc(-c6ccncc6)[nH]c5c4)cc3[nH]2)ccn1` [Batch 4, ridinilazole tetrahydrate] gave a D10 [1, 11] of 1 μm, a D50 [1, 11] of 3 μm and a D90 [1, 11] of 10 μm. It also gave a D10 [1, 12] of 1.5 μm, a D50 [1, 12] of 6 μm and a D90 [1, 12] of 13 μm.
`O.O.O.O.c1cc(-c2nc3ccc(-c4ccc5nc(-c6ccncc6)[nH]c5c4)cc3[nH]2)ccn1` [Batch 5, ridinilazole tetrahydrate] gave a D10 [1, 13] of 2.0 μm, a D50 [1, 13] of 7 μm and a D90 [1, 13] of 14 μm.
For `c1cc(-c2nc3cc(-c4ccc5[nH]c(-c6ccncc6)nc5c4)ccc3[nH]2)ccn1` [Form A, ridinilazole tetrahydrate], the “crystal form conversion within the tablet” value [2] was “No form conversion is detected”.
In the case of `c1cc(-c2nc3ccc(-c4ccc5nc(-c6ccncc6)[nH]c5c4)cc3[nH]2)ccn1` [ridinilazole, 2,2′-di(pyridin-4-yl)-1H,1′H-5,5′-bibenzo[d]imidazole], the “rates of recurrent disease” value [3] is listed as 14.3% and the solubility [4] is listed as “very low”.
In the case of `CN[C@H](CC(C)C)C(=O)N[C@H]1C(=O)N[C@@H](CC(N)=O)C(=O)N[C@H]2C(=O)N[C@H]3C(=O)N[C@H](C(=O)N[C@H](C(=O)O)c4cc(O)cc(O)c4-c4cc3ccc4O)[C@H](O)c3ccc(c(Cl)c3)Oc3cc2cc(c3O[C@@H]2O[C@H](CO)[C@@H](O)[C@H](O)[C@H]2O[C@H]2C[C@](C)(N)[C@H](O)[C@H](C)O2)Oc2ccc(cc2Cl)[C@H]1O` [vancomycin, reference compound], the “rates of recurrent disease” value [3] is listed as 34.8%.
